From article PMC5983823, “Screening of Natural Product Derivatives Identifies Two Structurally Related Flavonoids as Potent Quorum Sensing Inhibitors against Gram-Negative Bacteria” (International Journal of Molecular Sciences, 2018)

Assays:
C. violaceum ATCC 31532 = experiment: Violacein extraction assay (QS-mediated violacein production); format: cell-based, Chromobacterium violaceum; settings: Chromobacterium violaceum; for inhibition at 400 µM: ATCC31532, 24 h, primary screening, 24 h, C. violaceum ATCC 31532, read-out: Inhibition-% of violacein production; for IC50: ATCC31532, C. violaceum ATCC 31532, 15 concentration points, read-out: IC50 of violacein production
Method: The initial screening of compound library was conducted using two strains of C. violaceum as model bacterium, and two assays (violacein extraction and resazurin staining) in parallel as recently optimized in [26]. For the screening assays, overnight cultures of C. violaceum were diluted in LB broth supplemented with yeast extract (LBY) (0.1% w/v, Sigma Aldrich, St. Louis, MO, USA). Culture of C. violaceum CV026 was further supplemented with 0.5 µM N-(β-ketocaproyl)-L-Homoserine lactone (3-O-C6-(L)-HSL, Cayman chemicals, Ann Arbor, MI, USA) to induce the violacein production. Bacteria (10^6 CFU/mL) was exposed to compounds (400 µM) in a total volume of 200 µL in 96-microtiter well plates (Nunc, Roskilde, Denmark), and incubated at 27 °C, with shaking at 200 rpm for 24 h. DMSO was added in untreated control wells and bacteria-free wells with only LBY were included controls. Additionally, autoinducer-free wells containing only bacteria were included in C. violaceum CV026 plates. Plates were prepared in duplicates. Quercetin dihydrate (Carl Roth GmbH, Karlsruhe, Germany) at 400 µM was used as positive control in violacein extraction assay, and azithromycin (Cayman chemicals, Ann Arbor, MI, USA) at 10 µM in viability assay. Both control compounds were prepared in DMSO. DMSO concentration was 2.5% throughout the experiments.
After incubation period of 24 h, plates were centrifuged (Allegra™ X-12R Benchtop centrifuge, Beckman Coulter Inc., Fullerton, CA, USA) at 3000 rpm for 10 min to precipitate the violacein. Supernatants were discarded from the wells by pipetting, and pellets were re-suspended in 200 μL of 96% ethanol by scraping and mixing followed by centrifugation (3000 rpm, 10 min). Thereafter, 100 μL of supernatants were transferred to sterile 96-microtiter well plates, and violacein was quantified by reading the optical density at 595 nm using Varioskan Flash. Inhibition of violacein production was expressed as inhibition percentages of the untreated biofilms (Equation (1)):Inhibition-% = [(untreated control OD595 − sample OD595)/(untreated control OD595 − media control OD595)] × 100%(1) in which untreated control = C. violaceum + DMSO, media control = LBY, and sample = C. violaceum treated with a compound. Later on, violacein extraction assay was also utilized for the determination of half inhibitory concentrations of the compounds.

[1] = test system: P. aeruginosa and E. coli biofilms; experiment: Transmitted light microscopy of biofilms; format: cell-based, Pseudomonas aeruginosa, Escherichia coli; settings: 100 µM, all the tested strains, crystal violet, 40×
Method: For imaging, bacteria were allowed to adhere and form microcolonies on coverslips. Briefly, 5 mL of diluted cultures (10^6 CFU/mL) of P. aeruginosa and E. coli was added to 6-well plates containing glass coverslips (22 mm × 22 mm). The plates were incubated at 37 °C without shaking for 2 h. Thereafter, bacterial suspensions were removed, and the wells were washed once with PBS. Fresh LB with and without the lead compounds at a final concentration of 100 µM was added to the wells, and the plates were incubated at 37 °C for 22 h. At the end of 24 h, coverslips were rinsed three times with MQ-water and air dried followed by staining with 0.23% (v/v) crystal violet solution. Coverslips were allowed to dry and visualized under a Transmitted Light Microscope (EVOS® XL Imaging System, InvitrogenTM, Thermo Fisher Scientific, San Jose, CA, USA) at a magnification of 40×.

P. aeruginosa PAO1 [2] = experiment: Swarming motility assay; format: cell-based; settings: Pseudomonas aeruginosa, PAO1, read-out: Inhibition of swarming motility
Method: (§1) Assays were performed according to the protocols previously described in [30, 74] with some modifications. The swarming agar was prepared in MQ-water consisting of 0.3% (w/v) agar, 1% (w/v) peptone, 0.5% (w/v) yeast extract and 0.5% (w/v) sodium chloride, and the swimming agar similarly but without yeast extract. Compounds at a final concentration of 400 µM and 100 µM were pre-mixed with 5 mL of agar, and poured over solidified LB agar plates (10 mL/petri dish) as overlays. The plates were allowed to dry at 30 °C for three hours followed by point inoculation with 2 µL of P. aeruginosa PAO1 (~10^8 CFU/mL) and incubation at 37 °C for 18 h. Quercetin was used as a control. Diameters of the swarming and swimming zones were measured after the incubation periods.

P. aeruginosa PAO1 [3] = experiment: Swimming motility assay; format: cell-based; settings: Pseudomonas aeruginosa, highest test concentration (400 µM)
Method: as §1

[4] = test system: human lung (HL) epithelial cells; experiment: Cytotoxicity testing (CellTiter Glo); format: cell-based; settings: 24 h exposure
Method: (§2) Human lung (HL) epithelial cells were grown in RPMI 1640 (Biowhittaker, Lonza, Viewers, Bornem, Belgium) supplemented with 10% inactivated fetal bovine serum (FBS), 2 mM L-glutamine and gentamycin 20 µg/mL, and mouse monocyte macrophage RAW 264.7 cells in DMEM medium supplemented with 10% FBS and 20 µg/mL gentamycin. Cells (3 × 10^5 cells/mL) were seeded into 96-microtiter well plates (Cellstar TC, Greiner Bio-One GmbH, Frickenhausen, Germany), 200 µL per well, and incubated at 37 °C in 5% CO2 24 h before exposure to the compounds. After the incubation, culture medium was discarded, the wells were washed with PBS, and the compound dilutions prepared in culture media were added as triplicates to a final volume of 200 µL. Usnic acid (200 µM, Sigma Aldrich, St. Louis, MO, USA) was included as positive control and DMSO (1%) as solvent control. Plates were incubated for additional 24 h. At the end of 24 h, media was removed, wells were washed twice with PBS and 100 µL of PBS was added. CellTiter Glo® reagent (Promega, Madison, WI, USA) was prepared according to manufacturer’s instructions, and 100 µL was added to the wells. The plates were shaken for two minutes and equilibrated at room temperature for 10 min prior to measuring the luminescence using Varioskan LUX multimode plate reader (Thermo Scientific, Vantaa, Finland). Inhibition of cell viability was calculated in relation to the untreated cells.

[5] = test system: mouse monocyte macrophage (RAW 264.7) cells; experiment: Cytotoxicity testing (CellTiter Glo); format: cell-based; settings: 24 h exposure
Method: as §2

| SMILES | inhibition at 400 µM (C. violaceum ATCC 31532) [%] | IC50 (C. violaceum ATCC 31532) [µM] | Effect on biofilm structure and formation [1] | inhibition at 400 µM (P. aeruginosa PAO1 [2]) [%] | inhibition at 400 µM (P. aeruginosa PAO1 [3]) [%] | Inhibition-% of cell viability ([4]; 10 µM) | Inhibition-% of cell viability ([4]; 40 µM) | Inhibition-% of cell viability ([4]; 100 µM) | Inhibition-% of cell viability ([5]; 10 µM) | Inhibition-% of cell viability ([5]; 40 µM) | Inhibition-% of cell viability ([5]; 100 µM) |
| --- | --- | --- | --- | --- | --- | --- | --- | --- | --- | --- | --- |
| CCCCCCCCCC(=O)Oc1c(-c2ccc(OC)cc2)oc2ccccc2c1=O [Compound 2896, 2-(4-methoxyphenyl)-4-oxochromen-3-yl decanoate] | 94.5 | 13.9 | alteration of biofilm structure and reduced biofilm formation | 69.8 | 33.9 | N.I. | N.I. | did not display any effects on the cell viability and N.I. | N.I. | N.I. | did not display any effects on the cell viability and N.I. |
| CCC(=O)Oc1c(-c2ccccc2Cl)oc2ccccc2c1=O [Compound 2117, 2-(2-chlorophenyl)-4-oxochromen-3-yl propanoate] | 102 | 9.6 | alteration of biofilm structure and reduced biofilm formation | 72.1 | 28.1 | N.I. | N.I. | 11.2 ± 4.9% | N.I. | N.I. |  |
